System: subjects with moderate-to-severe plaque psoriasis
Experiment: Safety, adverse events, Example 2 through Week 56
Type: in vivo, human
From the text: The LTE safety analysis was based on randomized participants in Example who entered the present long-term extension study and received at least one dose of study intervention (including a partial dose) during the study period.

[1] = 25 mg QD, Week 16 through Week 56

CC(=O)NCCCC[C@@H]1NC(=O)[C@H](Cc2c[nH]c3c(C)cccc23)NC(=O)[C@H]([C@@H](C)O)NC(=O)[C@H](CC(N)=O)NC(=O)[C@@H](NC(C)=O)C(C)(C)SSC(C)(C)[C@@H](C(=O)N[C@@H](Cc2ccc(OCCN)cc2)C(=O)N[C@@H](Cc2ccc3ccccc3c2)C(=O)NC2(C(=O)N[C@@H](CCC(=O)O)C(=O)N[C@@H](CC(N)=O)C(=O)N[C@@H](Cc3cccnc3)C(=O)N(C)CC(N)=O)CCOCC2)NC1=O [IL-23 receptor antagonist peptide, Ac-[Pen]*-N-T-[W(7-Me)]-[Lys(Ac)]-[Pen]*-Phe[4-(2-aminoethoxy)]-[2-Nal]-[THP]-E-N-[3-Pal]-Sarc-NH2 (*[Pen]-[Pen]* formdisulfidebond)]
3: Metabolism and nutrition disorders: number of subjects (25 mg BID, through Week 56)
1: Neoplasms benign, malignant and unspecified (incl cysts and polyps): number of subjects (25 mg BID, through Week 56) | Psoriasis: number of subjects (25 mg BID, through Week 56) | Psychiatric disorders: number of subjects (25 mg BID, through Week 56) | Respiratory, thoracic and mediastinal disorders: number of subjects (25 mg BID, through Week 56) | Sunburn: number of subjects (25 mg BID, through Week 56) | Tonsillar hypertrophy: number of subjects (25 mg BID, through Week 56) | Ventricular dysfunction: number of subjects (25 mg BID, through Week 56) | Vitamin D deficiency: number of subjects (25 mg BID, through Week 56) | Number of subjects with treatment-emergent AE: Ear and labyrinth disorders [1] | Number of subjects with treatment-emergent AE: Vertigo [1] | Alopecia: number of subjects (25 mg QD, through Week 56) | Blood and lymphatic system disorders: number of subjects (25 mg QD, through Week 56)
(7.3%): Metabolism and nutrition disorders: % of subjects (25 mg BID, through Week 56)
8: Subjects with treatment-emergent AE: Nasopharyngitis (25 mg BID, through Week 56)
(2.9%): Subjects with treatment-emergent AE: Ear and labyrinth disorders (%) [1] | Subjects with treatment-emergent AE: Vertigo (%) [1]
(2.3%): Alopecia: % of subjects (25 mg QD, through Week 56) | Blood and lymphatic system disorders: % of subjects (25 mg QD, through Week 56)
0: Ketonuria: number of subjects (25 mg BID, through Week 56) | Leukocyturia: number of subjects (25 mg BID, through Week 56) | Leukopenia: number of subjects (25 mg BID, through Week 56) | Libido decreased: number of subjects (25 mg BID, through Week 56) | Liver disorder: number of subjects (25 mg BID, through Week 56) | Lymphopenia: number of subjects (25 mg BID, through Week 56) | Menopause: number of subjects (25 mg BID, through Week 56) | Nephrolithiasis: number of subjects (25 mg BID, through Week 56) | Neutropenia: number of subjects (25 mg BID, through Week 56) | Night sweats: number of subjects (25 mg BID, through Week 56) | Non-cardiac chest pain: number of subjects (25 mg BID, through Week 56) | Ocular cyst: number of subjects (25 mg BID, through Week 56) | Oedema peripheral: number of subjects (25 mg BID, through Week 56) | Oropharyngeal pain: number of subjects (25 mg BID, through Week 56) | Procedural pain: number of subjects (25 mg BID, through Week 56) | Productive cough: number of subjects (25 mg BID, through Week 56) | Proteinuria: number of subjects (25 mg BID, through Week 56) | Pruritus: number of subjects (25 mg BID, through Week 56) | Pyrexia: number of subjects (25 mg BID, through Week 56) | Rash pruritic: number of subjects (25 mg BID, through Week 56) | Renal and urinary disorders: number of subjects (25 mg BID, through Week 56) | Renal mass: number of subjects (25 mg BID, through Week 56) | Retinal vein occlusion: number of subjects (25 mg BID, through Week 56) | Rhinorrhoea: number of subjects (25 mg BID, through Week 56) | Seasonal allergy: number of subjects (25 mg BID, through Week 56) | Skin laceration: number of subjects (25 mg BID, through Week 56) | Skin papilloma: number of subjects (25 mg BID, through Week 56) | Social circumstances: number of subjects (25 mg BID, through Week 56) | Steatohepatitis: number of subjects (25 mg BID, through Week 56) | Subjects with AE leading to discontinuation: Abdominal discomfort (25 mg BID, through Week 56) | Subjects with AE leading to discontinuation: Abdominal pain (25 mg BID, through Week 56) | Subjects with AE leading to discontinuation: Alanine aminotransferase increased (25 mg BID, through Week 56) | Subjects with AE leading to discontinuation: Aspartate aminotransferase increased (25 mg BID, through Week 56) | Subjects with AE leading to discontinuation: Ear and labyrinth disorders (25 mg BID, through Week 56) | Subjects with AE leading to discontinuation: Gamma-glutamyltransferase increased (25 mg BID, through Week 56) | Subjects with AE leading to discontinuation: Investigations (25 mg BID, through Week 56) | Subjects with AE leading to discontinuation: Nausea (25 mg BID, through Week 56) | Subjects with AE leading to discontinuation: Suicide attempt (25 mg BID, through Week 56) | Subjects with AE leading to discontinuation: Transaminases increased (25 mg BID, through Week 56) | Subjects with AE leading to discontinuation: Vertigo (25 mg BID, through Week 56) | Subjects with AE leading to discontinuation: Vomiting (25 mg BID, through Week 56) | Subjects with AE leading to discontinuation: Weight increased (25 mg BID, through Week 56) | Subjects with COVID-19 associated AE: SARS-CoV-2 test positive (25 mg BID, through Week 56) | Subjects with treatment-emergent AE: Arthralgia (25 mg BID, through Week 56) | Subjects with treatment-emergent AE: Cough (25 mg BID, through Week 56) | Subjects with treatment-emergent serious AE: COVID-19 (25 mg BID, through Week 56) | Subjects with treatment-emergent serious AE: Cerebrovascular accident (25 mg BID, through Week 56) | Subjects with treatment-emergent serious AE: Coronary artery disease (25 mg BID, through Week 56) | Subjects with treatment-emergent serious AE: Diverticulitis (25 mg BID, through Week 56) | Subjects with treatment-emergent serious AE: Foot deformity (25 mg BID, through Week 56) | Subjects with treatment-emergent serious AE: General disorders and administration site conditions (25 mg BID, through Week 56) | Subjects with treatment-emergent serious AE: Infected cyst (25 mg BID, through Week 56) | Subjects with treatment-emergent serious AE: Infections and infestations (25 mg BID, through Week 56) | Subjects with treatment-emergent serious AE: Intervertebral disc protrusion (25 mg BID, through Week 56) | Subjects with treatment-emergent serious AE: Musculoskeletal and connective tissue disorders (25 mg BID, through Week 56) | Subjects with treatment-emergent serious AE: Neoplasms benign, malignant and unspecified (incl cysts and polyps) (25 mg BID, through Week 56) | Subjects with treatment-emergent serious AE: Nervous system disorders (25 mg BID, through Week 56) | Subjects with treatment-emergent serious AE: Non-cardiac chest pain (25 mg BID, through Week 56) | Subjects with treatment-emergent serious AE: Psychiatric disorders (25 mg BID, through Week 56) | Subjects with treatment-emergent serious AE: Suicide attempt (25 mg BID, through Week 56) | Subjects with treatment-emergent serious AE: Uterine leiomyoma (25 mg BID, through Week 56) | Suicide attempt: number of subjects (25 mg BID, through Week 56) | Thrombocytopenia: number of subjects (25 mg BID, through Week 56) | Thrombocytosis: number of subjects (25 mg BID, through Week 56) | Tooth fracture: number of subjects (25 mg BID, through Week 56) | Type 2 diabetes mellitus: number of subjects (25 mg BID, through Week 56) | Urinary tract disorder: number of subjects (25 mg BID, through Week 56) | Uterine leiomyoma: number of subjects (25 mg BID, through Week 56) | Vertigo: number of subjects (25 mg BID, through Week 56) | Number of subjects with treatment-emergent AE: Cholelithiasis [1] | Number of subjects with treatment-emergent AE: Endocrine disorders [1] | Number of subjects with treatment-emergent AE: Eye disorders [1] | Number of subjects with treatment-emergent AE: Eyelid skin dryness [1] | Number of subjects with treatment-emergent AE: Goiter [1] | Number of subjects with treatment-emergent AE: Hepatobiliary disorders [1] | Number of subjects with treatment-emergent AE: Hypertransaminasemia [1] | Number of subjects with treatment-emergent AE: Immune system disorders [1] | Number of subjects with treatment-emergent AE: Insomnia [1] | Number of subjects with treatment-emergent AE: Ocular cyst [1] | Number of subjects with treatment-emergent AE: Psychiatric disorders [1] | Number of subjects with treatment-emergent AE: Retinal vein occlusion [1] | Number of subjects with treatment-emergent AE: Seasonal allergy [1] | Acrochordon: number of subjects (25 mg QD, through Week 56) | Actinic keratosis: number of subjects (25 mg QD, through Week 56) | Asthenia: number of subjects (25 mg QD, through Week 56) | Asthma: number of subjects (25 mg QD, through Week 56) | Atrioventricular block first degree: number of subjects (25 mg QD, through Week 56) | Basal cell carcinoma: number of subjects (25 mg QD, through Week 56) | Bronchitis chronic: number of subjects (25 mg QD, through Week 56) | Bundle branch block right: number of subjects (25 mg QD, through Week 56)
(4.9%): Skin and subcutaneous tissue disorders: % of subjects (25 mg BID, through Week 56) | Vascular disorders: % of subjects (25 mg BID, through Week 56)
2: Skin and subcutaneous tissue disorders: number of subjects (25 mg BID, through Week 56) | Vascular disorders: number of subjects (25 mg BID, through Week 56)
(2.4%): Neoplasms benign, malignant and unspecified (incl cysts and polyps): % of subjects (25 mg BID, through Week 56) | Psoriasis: % of subjects (25 mg BID, through Week 56) | Psychiatric disorders: % of subjects (25 mg BID, through Week 56) | Respiratory, thoracic and mediastinal disorders: % of subjects (25 mg BID, through Week 56) | Sunburn: % of subjects (25 mg BID, through Week 56) | Tonsillar hypertrophy: % of subjects (25 mg BID, through Week 56) | Ventricular dysfunction: % of subjects (25 mg BID, through Week 56) | Vitamin D deficiency: % of subjects (25 mg BID, through Week 56)
